Experimental findings from patent publication US12084472B2 (Ardelyx, Inc., priority 2015, dated 2024) are described below.

The target of the assay is T1, human TGR5 (Homo sapiens, UniProt Q8TDU6).
T1 construct: expressed in transfected cells; host or cells: HEK293
T1 sequence (Q8TDU6 1-330): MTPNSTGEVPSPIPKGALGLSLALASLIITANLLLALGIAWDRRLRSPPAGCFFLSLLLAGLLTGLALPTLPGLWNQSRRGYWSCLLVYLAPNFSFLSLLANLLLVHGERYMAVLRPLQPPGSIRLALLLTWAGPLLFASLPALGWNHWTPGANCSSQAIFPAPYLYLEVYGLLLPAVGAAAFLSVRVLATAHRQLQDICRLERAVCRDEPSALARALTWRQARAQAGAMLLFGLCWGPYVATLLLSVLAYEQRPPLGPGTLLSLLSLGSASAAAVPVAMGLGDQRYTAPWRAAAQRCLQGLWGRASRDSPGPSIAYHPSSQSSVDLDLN
Nature of the assay: Cell-based TGR5 assay (cAMP generation, HTRF). To be noted: HEK293 cells stably transfected with human TGR5; cAMP by HTRF; 30 minutes at 37° C.; read-out: pEC50 Human TGR5 (converted). The procedure, abridged: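 Read-out was HTRF detection of cAMP, converted to concentration via a standard curve and fitted (3-parameter logistic) for pEC50 and maximal response. Agonist stimulation used HEK293 cells stably transfected with human TGR5, incubated 30 min at 37° C in IBMX-containing buffer at 0.05 nM to 10 μM compound.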
On the technique in general: In TR-FRET formats the signal depends on donor and acceptor labels being close together.
For `CN(CCOCCNC(=O)NC[C@H](O)[C@@H](O)[C@H](O)[C@H](O)CO)S(=O)(=O)c1ccc(Cl)c(COC2(c3cnccc3-c3ccccc3OC3CC3)CC2)c1` (stereo in doubt) [Compound I-404, 1-(2-{2-[N-methyl4-chloro-3-({1-[4-(2-cyclopropoxyphenyl)pyridin-3-yl]cyclopropoxy}methyl)benzenesulfonamido]ethoxy}ethyl)-3-[(2S,3R,4R,5R)-2,3,4,5,6-pentahydroxyhexyl]urea], the EC50 was less than 0.1 µM.

For `CS(=O)(=O)CCN(CCCSc1ccc(Cl)c(CNC2(c3cnccc3-c3ccccc3OC3CC3)CC2)c1)C(=O)[C@@H](O)[C@@H](O)[C@H](O)[C@@H](O)CO` [Compound I-583, (2S,3S,4R,5S)-N-[3-({4-chloro-3-[({1-[4-(2-cyclopropoxyphenyl)pyridin-3-yl]cyclopropyl}amino)methyl]phenyl}sulfanyl)propyl]-2,3,4,5,6-pentahydroxy-N-(2-methanesulfonylethyl) hexanamide], the EC50 is 0.126 to 1 µM.

On to `O=C1CCO[C@H]([C@@H](O)[C@H](O)[C@H](O)CO)CN1CCCCc1cc(Cl)c(COC2(c3cnccc3-c3ccccc3OC3CC3)CC2)cc1Cl` [Compound I-78, (S)-4-(4-(2,5-dichloro-4-((1-(4-(2-cyclopropoxyphenyl)pyridin-3-yl)cyclopropoxy)methyl)phenyl)butyl)-2-((1S,2R,3R)-1,2,3,4-tetrahydroxybutyl)-1,4-oxazepan-5-one], for which the EC50 was less than 0.1 µM.

Regarding `O=C(NCCCC(CO)c1ccc(Cl)c(CNC2(c3cnccc3-c3ccccc3OC3CC3)CC2)c1)NC[C@H](O)[C@@H](O)[C@H](O)[C@H](O)CO` (stereo partly drawn) [Compound I-384, 1-(4-{4-chloro-3-[({1-[4-(2-cyclopropoxyphenyl)pyridin-3-yl]cyclopropyl}amino)methyl]phenyl}-5-hydroxypentyl)-3-[(2S,3R,4R,5R)-2,3,4,5,6-pentahydroxyhexyl]urea], the EC50 is 0.126 to 1 µM.

On to `Clc1ccc(Cl)c(CNC2(c3cnccc3-c3ccccc3OC3CCC3)CC2)c1` [Compound I-5, 1-[4-(2-cyclobutoxyphenyl)pyridin-3-yl]-N-[(2,5-dichlorophenyl)methyl]cyclopropan-1-amine], for which the EC50 is 0.126 to 1 µM.

For the molecule `CN(C)C(=O)CN(C[C@H](O)[C@@H](O)[C@H](O)[C@H](O)CO)C(=O)CCCCc1cc(Cl)c(COC2(c3cnccc3-c3ccccc3OC3CC3)CC2)cc1Cl` [Compound I-221, 5-[2,5-dichloro-4-({1-[4-(2-cyclopropoxyphenyl)pyridin-3-yl]cyclopropoxy}methyl)phenyl]-N-[(dimethylcarbamoyl)methyl]-N-[(2S,3R,4R,5R)-2,3,4,5,6-pentahydroxyhexyl]pentanamide], the EC50 was less than 0.1 µM.

As to `O=C(NCC1CCN(S(=O)(=O)c2ccc(Cl)c(COC3(c4cnccc4-c4ccccc4OC4CC4)CC3)c2)CC1)NC[C@H](O)[C@@H](O)[C@H](O)[C@H](O)CO` [Compound I-424, 1-({1-[4-chloro-3-({1-[4-(2-cyclopropoxyphenyl)pyridin-3-yl]cyclopropoxy}methyl)benzenesulfonyl]piperidin-4-yl}methyl)-3-[(2S,3R,4R,5R)-2,3,4,5,6-pentahydroxyhexyl]urea], the EC50 was less than 0.1 µM.

In the case of `O=C(CCCCc1cc(Cl)c(COC2(c3cnccc3-c3ccccc3OC3CC3)CC2)cc1Cl)N(CCO)C[C@H](O)[C@@H](O)[C@H](O)[C@H](O)CO` [Compound I-105, 5-[2,5-dichloro-4-({1-[4-(2-cyclopropoxyphenyl)pyridin-3-yl]cyclopropoxy}methyl)phenyl]-N-(2-hydroxyethyl)-N-[(2S,3R,4R,5R)-2,3,4,5,6-pentahydroxyhexyl]pentanamide], the EC50 was less than 0.1 µM.

For `Cc1ccc(Cl)cc1CNC1(c2cnccc2-c2ccccc2OC2CC2)CC1` [Compound I-40, N-[(5-chloro-2-methylphenyl)methyl]-1-[4-(2-cyclopropoxyphenyl)pyridin-3-yl]cyclopropan-1-amine], the EC50 was less than 0.1 µM.

`Cc1ccc(C(C)CCCC(=O)N(CCO)C[C@H](O)[C@@H](O)[C@H](O)[C@H](O)CO)cc1CNC1(c2cnccc2-c2ccccc2OC2CC2)CC1` (stereo partly drawn) [Compound I-355, 5-{3-[({1-[4-(2-cyclopropoxyphenyl)pyridin-3-yl]cyclopropyl}amino)methyl]-4-methylphenyl}-N-(2-hydroxyethyl)-N-[(2S,3R,4R,5R)-2,3,4,5,6-pentahydroxyhexyl]hexanamide]: the EC50 was less than 0.1 µM.

As for `Clc1ccc(Cl)c(CNC2(c3cnccc3-c3ccccc3C3CC3)CC2)c1` [Compound I-10, 1-[4-(2-cyclopropylphenyl)pyridin-3-yl]-N-[(2,5-dichlorophenyl)methyl]cyclopropan-1-amine], the EC50 was 0.126 to 1 µM.

As for `CN(C)CCN(C[C@H](O)[C@@H](O)[C@H](O)[C@H](O)CO)C(=O)CCCCc1cc(Cl)c(COC2(c3cnccc3-c3ccccc3OC3CC3)CC2)cc1Cl` [Compound I-207, 5-[2,5-dichloro-4-({1-[4-(2-cyclopropoxyphenyl)pyridin-3-yl]cyclopropoxy}methyl)phenyl)-N-[2-(dimethylamino)ethyl]-N-[(2S,3R,4R,5R)-2,3,4,5,6-pentahydroxyhexyl]pentanamide], the EC50 is 0.126 to 1 µM.

Regarding `O=C(CCCCc1cc(Cl)c(COC2(c3cnccc3-c3ccccc3OC3CC3)CC2)cc1Cl)N[C@@H]1[C@@H](O)[C@H](O)[C@@H](CO)O[C@H]1O` [Compound I-154, 5-[2,5-dichloro-4-({1-[4-(2-cyclopropoxyphenyl)pyridin-3-yl]cyclopropoxy}methyl)phenyl]-N-[(2R,3R,4R,5S,6R)-2,4,5-trihydroxy-6-(hydroxymethyl)oxan-3-yl]pentanamide], the EC50 is less than 0.1 µM.

As to `Cc1ccccc1-c1ccncc1C1(OCc2cc(Cl)ccc2Cl)CC1` [Compound I-773, 3-(1-((2,5-dichlorobenzyl)oxy)cyclopropyl)-4-(o-tolyl)pyridine], the EC50 is 0.126 to 1 µM.

As to `O=C([C@@H](O)[C@@H](O)[C@H](O)[C@@H](O)CO)N(CCO)CCCCc1cc(Cl)c(COC2(c3cnccc3-c3ccccc3OC3CC3)CC2)cc1Cl` [Compound I-213, (2S,3S,4R,5S)-N-{4-[2,5-dichloro-4-({1-[4-(2-cyclopropoxyphenyl)pyridin-3-yl]cyclopropoxy}methyl)phenyl]butyl}-2,3,4,5,6-pentahydroxy-N-(2-hydroxyethyl)hexanamide], the EC50 was less than 0.1 µM.

For the molecule `CN(C[C@H](O)[C@@H](O)[C@H](O)[C@H](O)CO)C(=O)CC1(CSc2ccc(Cl)c(CNC3(c4cnccc4-c4ccccc4OC4CC4)CC3)c2)CC1` [Compound I-681, 2-{1-[({4-chloro-3-[({1-[4-(2-cyclopropoxyphenyl)pyridin-3-yl]cyclopropyl}amino)methyl]phenyl}sulfanyl)methyl]cyclopropyl}-N-methyl-N-[(2S,3R,4R,5R)-2,3,4,5,6-pentahydroxyhexyl]acetamide], the EC50 is less than 0.1 µM.

For `O=C(NCCCCCNS(=O)(=O)c1ccc(Cl)c(COC2(c3cnccc3-c3ccccc3OC3CC3)CC2)c1)N[C@@H](CO)[C@@H](O)[C@H](O)[C@H](O)CO` (stereo in doubt) [Compound I-409, 1-{5-[4-chloro-3-({1-[4-(2-cyclopropoxyphenyl)pyridin-3-yl]cyclopropoxy}methyl)benzenesulfonamido]pentyl}-3-[(2S,3R,4S,5R)-1,3,4,5,6-pentahydroxyhexan-2-yl]urea], the EC50 was less than 0.1 µM.
